Laboratory results: PubChem BioAssay AID1259407 (Chemical Carcinogenesis Research Information System (CCRIS), 2018)
Active and inactive are the calls of the source. How the calls were made is not given here.

System: CCRIS mutagenicity, Ames/micronucleus/aberration tests
Experiment: CCRIS mutagenicity studies
[1] = Test System: AMES SALMONELLA TYPHIMURIUM, Strain/Indicator: TA98, Metabolic Activation: NONE, Method: PREINCUBATION
[2] = Test System: AMES SALMONELLA TYPHIMURIUM, Strain/Indicator: TA98, Metabolic Activation: NONE, Method: STANDARD PLATE
[3] = Test System: AMES SALMONELLA TYPHIMURIUM, Strain/Indicator: TA98, Metabolic Activation: RAT, LIVER, S-9, AROCLOR 1254, Method: STANDARD PLATE
[4] = Test System: AMES SALMONELLA TYPHIMURIUM, Strain/Indicator: TA100, Metabolic Activation: NONE, Method: PREINCUBATION
[5] = Test System: AMES SALMONELLA TYPHIMURIUM, Strain/Indicator: TA100, Metabolic Activation: NONE, Method: STANDARD PLATE
[6] = Test System: AMES SALMONELLA TYPHIMURIUM, Strain/Indicator: TA100, Metabolic Activation: RAT, LIVER, S-9, AROCLOR 1254, Method: STANDARD PLATE
[7] = Test System: AMES SALMONELLA TYPHIMURIUM, Strain/Indicator: TA1537, Metabolic Activation: NONE, Method: STANDARD PLATE
[8] = Test System: AMES SALMONELLA TYPHIMURIUM, Strain/Indicator: TA1537, Metabolic Activation: RAT, LIVER, S-9, AROCLOR 1254, Method: STANDARD PLATE

Measured: mutagenic call

COc1cc(/C=C/C(=O)CC(=O)/C=C/c2ccc(O)c(OC)c2)ccc1O
active: End Point: IN VITRO CHROMOSOMAL ABERRATIONS, Test System: CHO CELLS, Metabolic Activation: NONE active; positive (structural changes); presence of iron significantly decreased number o | End Point: IN VITRO CHROMOSOMAL ABERRATIONS, Test System: CHO-9 CELLS, Metabolic Activation: NONE active; positive (structural changes) | End Point: In vitro chromosomal aberrations, Test System: Chinese hamster ovary (CHO-9) cells, Metabolic Activation: None active; positive (structural changes)
inactive: End Point: IN VIVO CHROMOSOMAL ABERRATIONS, Test System: BONE MARROW CELLS, Species: RAT, Strain/Sex: WISTAR/MALE, Route: GAVAGE inactive; negative; curcumin reduced mutagenic effect of cyclophosphamide | End Point: In vitro micronucleus, Test System: Human lymphocytes, Metabolic Activation: None inactive; negative | Test System: AMES SALMONELLA TYPHIMURIUM, Strain/Indicator: TA98, Metabolic Activation: HAMSTER, LIVER, S-9, AROCLOR 1254 (10%), Method: PREINCUBATION inactive; negative | Test System: AMES SALMONELLA TYPHIMURIUM, Strain/Indicator: TA98, Metabolic Activation: HAMSTER, LIVER, S-9, AROCLOR 1254, Method: STANDARD PLATE inactive; negative | [1] inactive; negative | [2] inactive; negative | Test System: AMES SALMONELLA TYPHIMURIUM, Strain/Indicator: TA98, Metabolic Activation: RAT, LIVER, S-9, AROCLOR 1254 (10%), Method: PREINCUBATION inactive; negative | [3] inactive; negative | Test System: AMES SALMONELLA TYPHIMURIUM, Strain/Indicator: TA100, Metabolic Activation: HAMSTER, LIVER, S-9, AROCLOR 1254 (10%), Method: PREINCUBATION inactive; negative | Test System: AMES SALMONELLA TYPHIMURIUM, Strain/Indicator: TA100, Metabolic Activation: HAMSTER, LIVER, S-9, AROCLOR 1254, Method: STANDARD PLATE inactive; negative | [4] inactive; negative | [5] inactive; negative | Test System: AMES SALMONELLA TYPHIMURIUM, Strain/Indicator: TA100, Metabolic Activation: RAT, LIVER, S-9, AROCLOR 1254 (10%), Method: PREINCUBATION inactive; negative | [6] inactive; negative | Test System: AMES SALMONELLA TYPHIMURIUM, Strain/Indicator: TA1535, Metabolic Activation: HAMSTER, LIVER, S-9, AROCLOR 1254 (10%), Method: PREINCUBATION inactive; negative | Test System: AMES SALMONELLA TYPHIMURIUM, Strain/Indicator: TA1535, Metabolic Activation: HAMSTER, LIVER, S-9, AROCLOR 1254, Method: STANDARD PLATE inactive; negative | Test System: AMES SALMONELLA TYPHIMURIUM, Strain/Indicator: TA1535, Metabolic Activation: NONE, Method: PREINCUBATION inactive; negative | Test System: AMES SALMONELLA TYPHIMURIUM, Strain/Indicator: TA1535, Metabolic Activation: NONE, Method: STANDARD PLATE inactive; negative | Test System: AMES SALMONELLA TYPHIMURIUM, Strain/Indicator: TA1535, Metabolic Activation: RAT, LIVER, S-9, AROCLOR 1254 (10%), Method: PREINCUBATION inactive; negative | Test System: AMES SALMONELLA TYPHIMURIUM, Strain/Indicator: TA1535, Metabolic Activation: RAT, LIVER, S-9, AROCLOR 1254, Method: STANDARD PLATE inactive; negative | Test System: AMES SALMONELLA TYPHIMURIUM, Strain/Indicator: TA1537, Metabolic Activation: HAMSTER, LIVER, S-9, AROCLOR 1254 (10%), Method: PREINCUBATION inactive; negative | Test System: AMES SALMONELLA TYPHIMURIUM, Strain/Indicator: TA1537, Metabolic Activation: HAMSTER, LIVER, S-9, AROCLOR 1254, Method: STANDARD PLATE inactive; negative | Test System: AMES SALMONELLA TYPHIMURIUM, Strain/Indicator: TA1537, Metabolic Activation: NONE, Method: PREINCUBATION inactive; negative | [7] inactive; negative | Test System: AMES SALMONELLA TYPHIMURIUM, Strain/Indicator: TA1537, Metabolic Activation: RAT, LIVER, S-9, AROCLOR 1254 (10%), Method: PREINCUBATION inactive; negative | [8] inactive; negative | Test System: AMES SALMONELLA TYPHIMURIUM, Strain/Indicator: TA1538, Metabolic Activation: HAMSTER, LIVER, S-9, AROCLOR 1254, Method: STANDARD PLATE inactive; negative | Test System: AMES SALMONELLA TYPHIMURIUM, Strain/Indicator: TA1538, Metabolic Activation: NONE, Method: STANDARD PLATE inactive; negative | Test System: AMES SALMONELLA TYPHIMURIUM, Strain/Indicator: TA1538, Metabolic Activation: RAT, LIVER, S-9, AROCLOR 1254, Method: STANDARD PLATE inactive; negative

C=C1C[C@@]23CC[C@H]4[C@@](C)(CCC[C@@]4(C)C(=O)O)[C@@H]2CC[C@]1(O[C@@H]1O[C@H](CO)[C@@H](O)[C@H](O[C@@H]2O[C@H](CO)[C@@H](O)[C@H](O)[C@H]2O)[C@H]1O[C@@H]1O[C@H](CO)[C@@H](O)[C@H](O)[C@H]1O)C3
inactive: Test System: AMES SALMONELLA TYPHIMURIUM, Strain/Indicator: TM677, Metabolic Activation: RAT, LIVER, S-9, AROCLOR 1254, Method: PREINCUBATION inactive; negative

O=C(NCc1ccccc1)C(Cl)c1ccccc1 (centres undefined)
inactive: Test System: AMES SALMONELLA TYPHIMURIUM, Strain/Indicator: TA100, Metabolic Activation: MOUSE, LIVER, S-9, AROCLOR 1254, Method: STANDARD PLATE inactive; negative
active: [5] active; positive

CNC(N)=O
inactive: End Point: IN VITRO MICRONUCLEUS, Test System: V79 CELLS, Metabolic Activation: NONE inactive; negative

O[C@H]1[C@H](O)COC(NCCc2c[nH]c3ccccc23)[C@@H]1O (some centres undefined)
active: Test System: AMES SALMONELLA TYPHIMURIUM, Strain/Indicator: TA100, Metabolic Activation: NONE, Method: LIQUID INCUBATION active; positive

c1ccc2c(c1)C1OOC2c2ccccc21
inactive: [2] inactive; negative | [5] inactive; negative | [6] inactive; negative

Nc1cc2nc3ccccc3nc2cc1O
inactive: Test System: AMES SALMONELLA TYPHIMURIUM, Strain/Indicator: TA98(1,8-DNP6), Metabolic Activation: NONE, Method: PREINCUBATION inactive; negative | Test System: AMES SALMONELLA TYPHIMURIUM, Strain/Indicator: TA98(1,8-DNP6), Metabolic Activation: S-9, Method: PREINCUBATION inactive; negative | [1] inactive; negative | Test System: AMES SALMONELLA TYPHIMURIUM, Strain/Indicator: TA98, Metabolic Activation: S-9, Method: PREINCUBATION inactive; negative | Test System: AMES SALMONELLA TYPHIMURIUM, Strain/Indicator: TA100(OAT-), Metabolic Activation: NONE, Method: PREINCUBATION inactive; negative | Test System: AMES SALMONELLA TYPHIMURIUM, Strain/Indicator: TA100(OAT-), Metabolic Activation: S-9, Method: PREINCUBATION inactive; negative | [4] inactive; negative | [5] inactive; negative | Test System: AMES SALMONELLA TYPHIMURIUM, Strain/Indicator: TA100, Metabolic Activation: S-9, Method: PREINCUBATION inactive; negative
active: [2] active; positive | [3] active; positive | [6] active; positive | [7] active; positive | [8] active; positive | Test System: AMES SALMONELLA TYPHIMURIUM, Strain/Indicator: YG1024, Metabolic Activation: PLANT CELL-FREE EXTRACT, Method: PREINCUBATION active; positive | Test System: AMES SALMONELLA TYPHIMURIUM, Strain/Indicator: YG1024, Metabolic Activation: S-9, Method: PREINCUBATION active; positive | Test System: AMES SALMONELLA TYPHIMURIUM, Strain/Indicator: YG1029, Metabolic Activation: S-9, Method: PREINCUBATION active; positive

CS(=O)CCCCN=C=S (centres undefined)
inactive: End Point: IN VITRO MICRONUCLEUS, Test System: HUMAN T-LYMPHOCYTES, Metabolic Activation: NONE inactive; negative

C[C@H](CCN=[N+]=[N-])c1ccccc1
active: Test System: AMES SALMONELLA TYPHIMURIUM, Strain/Indicator: TA100, Metabolic Activation: RAT, LIVER, S-9, PCB, Method: PREINCUBATION active; positive
